Read-outs that look alike come from different tables or passages of the source.
Experiments:
NS5B570-Con1 (Delta-21) = NS5B570-Con1 (Delta-21) (Hepatitis C virus genotype 1b, UniProt Q9WMX2); test: biochemical; assay type: biochemical, HCV (Con-1 strain); conditions: 2 h at 37° C., mean of several independent experiments
[1] = system: self-replicating, subgenomic HCV replicon in Huh-7 cells; test: HCV replicon assay; assay type: cell-based
[2] = target: human mitochondrial RNA polymerase (Homo sapiens, UniProt O00411); test: DdRp assay: incorporation of nucleotides by human mitochondrial RNA polymerase (HMRP); conditions: single turnover, 100 μM NTP, 30° C., 1 minute; product band on gel
human mitochondrial RNA polymerase, sequence (O00411 42-1230): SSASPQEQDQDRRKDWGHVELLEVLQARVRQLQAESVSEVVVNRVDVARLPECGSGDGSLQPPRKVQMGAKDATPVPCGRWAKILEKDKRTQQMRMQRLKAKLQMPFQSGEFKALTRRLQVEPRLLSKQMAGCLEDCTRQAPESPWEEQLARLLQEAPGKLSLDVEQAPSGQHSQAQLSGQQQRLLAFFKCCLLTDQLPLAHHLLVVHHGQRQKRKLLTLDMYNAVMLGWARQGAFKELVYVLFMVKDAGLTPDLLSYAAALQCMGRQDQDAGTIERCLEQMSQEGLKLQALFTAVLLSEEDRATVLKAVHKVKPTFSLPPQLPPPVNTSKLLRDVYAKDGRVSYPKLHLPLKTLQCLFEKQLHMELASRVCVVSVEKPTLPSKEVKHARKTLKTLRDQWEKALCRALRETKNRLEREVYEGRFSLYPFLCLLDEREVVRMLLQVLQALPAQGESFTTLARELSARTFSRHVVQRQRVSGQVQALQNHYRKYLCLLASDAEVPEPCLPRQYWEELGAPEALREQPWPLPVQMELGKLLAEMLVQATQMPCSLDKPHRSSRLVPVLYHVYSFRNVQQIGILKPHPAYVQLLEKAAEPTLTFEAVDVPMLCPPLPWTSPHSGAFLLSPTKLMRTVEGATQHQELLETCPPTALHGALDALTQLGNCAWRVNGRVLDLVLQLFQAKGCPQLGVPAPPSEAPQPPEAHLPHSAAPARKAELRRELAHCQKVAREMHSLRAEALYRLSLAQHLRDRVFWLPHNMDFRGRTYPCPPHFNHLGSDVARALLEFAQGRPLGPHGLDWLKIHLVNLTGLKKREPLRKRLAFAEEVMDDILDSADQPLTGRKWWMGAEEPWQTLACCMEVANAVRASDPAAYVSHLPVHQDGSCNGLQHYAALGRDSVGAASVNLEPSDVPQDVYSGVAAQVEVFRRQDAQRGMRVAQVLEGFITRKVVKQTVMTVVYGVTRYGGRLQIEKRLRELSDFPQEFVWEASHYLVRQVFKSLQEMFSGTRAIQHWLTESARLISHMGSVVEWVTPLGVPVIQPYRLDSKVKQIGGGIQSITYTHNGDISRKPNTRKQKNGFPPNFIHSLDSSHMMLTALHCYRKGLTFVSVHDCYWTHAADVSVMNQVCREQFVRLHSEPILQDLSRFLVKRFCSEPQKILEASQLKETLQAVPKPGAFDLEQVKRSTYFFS

[3] = system: mitochondrial protein synthesis (COX I / SDH A) in HepG2 cells
[4] = IC50, 50 nM NS5B570-Con1, cIRES RNA template
[5] = Hepatitis C virus, Huh-7 HCV replicon cells, luciferase reporter, 72 h, read-out: EC50

**Q.** With `C[C@]1(O)[C@H](n2ccc(=O)[nH]c2=O)O[C@](F)(COP(O)(=S)OP(=O)(O)OP(=O)(O)O)[C@H]1O` (single isomer, unassigned) [Compound 7a] as the molecule, how does the IC50 (NS5B570-Con1 (Delta-21); [4]) read?
**A.** < 1 µM

**Q.** How did the IC50 (NS5B570-Con1 (Delta-21); [4]) turn out when `C[C@]1(O)[C@H](n2ccc(=O)[nH]c2=O)O[C@](F)(COP(O)(=S)OP(=O)(O)OP(=O)(O)O)[C@H]1O` (single isomer, unassigned) [Compound 7b] was run?
**A.** 1 to 10 µM

**Q.** How did the EC50 [1, 5] turn out when `CCOc1nc(N)nc2c1ncn2[C@@H]1O[C@]2(F)CO[P@](=O)(OC(C)C)O[C@H]2[C@@]1(C)O` (single isomer, unassigned) [Compound 36] was run?
**A.** < 1 µM

**Q.** With `C#C[C@]1(F)[C@H](n2cnc3c(OCC)nc(N)nc32)O[C@](F)(COP(=O)(N[C@@H](C)C(=O)OC2CCCCC2)Oc2ccccc2)[C@H]1O` (single isomer, unassigned) [Compound 41] as the molecule, how does the EC50 ([1]; Hepatitis C virus, Huh-7, 72 h) read?
**A.** 1 to 10 µM

**Q.** `C[C@@]1(F)[C@H](O)[C@@H](COP(=O)(O)OP(=O)(O)OP(=O)(O)O)O[C@H]1n1ccc(=O)[nH]c1=O` [2′-Me-2′-F-UTP] was tested. Which “incorporation by HMRP, template for UTP analogs (FIG. 10)” value [2] did it give?
**A.** not efficient substrates for incorporation by HMRP

**Q.** For `Nc1ncnc2c1ncn2[C@@H]1O[C@H](COP(=O)(O)OP(=O)(O)OP(=O)(O)O)[C@@H](O)[C@H]1O` [ATP], which “incorporation by HMRP, template for GTP analogs (FIG. 11)” value [2] is on record?
**A.** poor substrate for incorporation

**Q.** `C[C@H](NP(=O)(OC[C@@]1(F)O[C@@H](n2ccc(=O)[nH]c2=O)[C@](C)(O)C1O)Oc1ccccc1)C(=O)OCC(C)(C)C` (some centres unmarked) [Compound 5] was tested. Which EC50 ([1]; Hepatitis C virus, Huh-7, 72 h) did it give?
**A.** < 1 µM

**Q.** With `C#C[C@]1(O)[C@H](n2cnc3c(=O)[nH]c(N)nc32)O[C@](F)(COP(=O)(O)OP(=O)(O)OP(=O)(O)O)[C@H]1O` [Compound 9] as the molecule, how does the IC50 (NS5B570-Con1 (Delta-21); [4]) read?
**A.** < 1 µM

**Q.** Which EC50 [1, 5] does the source give for `CC(C)OC(=O)OCOP(=O)(OCOC(=O)OC(C)C)OC[C@@]1(F)O[C@@H](n2ccc(=O)[nH]c2=O)[C@](C)(O)[C@@H]1O` [Compound 14] here?
**A.** < 1 µM

**Q.** Which EC50 [1, 5] does the source give for `C[C@]1(F)[C@H](n2ccc(N)nc2=O)O[C@](F)(CO)[C@H]1O` [Compound 27] here?
**A.** 10 to 100 µM

**Q.** With `C[C@]1(F)[C@H](n2ccc(N)nc2=O)O[C@](F)(COP(=O)(O)OP(=O)(O)OP(=O)(O)O)[C@H]1O` [Compound 28] as the molecule, how does the EC50 [1, 5] read?
**A.** < 1 µM

**Q.** Which EC50 [1, 5] does the source give for `C[C@]1(F)[C@H](n2cnc3c(=O)[nH]c(N)nc32)O[C@](F)(CO)[C@H]1O` [Compound 29] here?
**A.** 10 to 100 µM

**Q.** For `C[C@H](NP(=O)(OC[C@@]1(F)O[C@@H](n2ccc(=O)[nH]c2=O)[C@](C)(F)[C@@H]1O)Oc1ccccc1)C(=O)OC1CCCCC1` (some centres unmarked) [Compound 30], which EC50 ([1]; Hepatitis C virus, Huh-7, 72 h) is on record?
**A.** < 1 µM

**Q.** Which EC50 ([1]; Hepatitis C virus, Huh-7, 72 h) does the source give for `CC(C)OC(=O)[C@H](C)NP(=O)(OC[C@@]1(F)O[C@@H](n2ccc(=O)[nH]c2=O)[C@](C)(F)[C@@H]1O)Oc1ccccc1` (some centres unmarked) [Compound 31] here?
**A.** < 1 µM

**Q.** For `CCOc1nc(N)nc2c1ncn2[C@@H]1O[C@](F)(CO[P@](=O)(N[C@@H](C)C(=O)OC2CCCCC2)Oc2ccccc2)[C@@H](O)[C@@]1(C)F` [Compound 32], which EC50 ([1]; Hepatitis C virus, Huh-7, 72 h) is on record?
**A.** < 1 µM

**Q.** How did the EC50 ([1]; Hepatitis C virus, Huh-7, 72 h) turn out when `CCOc1nc(N)nc2c1ncn2[C@@H]1O[C@](F)(CO[P@@](=O)(N[C@@H](C)C(=O)OC2CCCCC2)Oc2ccccc2)[C@@H](O)[C@@]1(C)F` [Compound 33] was run?
**A.** < 1 µM

**Q.** `C#C[C@]1(O)[C@H](n2cnc3c(OCC)nc(N)nc32)O[C@](F)(CO[P@](=O)(N[C@@H](C)C(=O)OC2CCCCC2)Oc2ccccc2)[C@H]1O` [Compound 34] was tested. Which EC50 ([1]; Hepatitis C virus, Huh-7, 72 h) did it give?
**A.** < 1 µM

**Q.** How did the EC50 ([1]; Hepatitis C virus, Huh-7, 72 h) turn out when `C#C[C@]1(O)[C@H](n2cnc3c(OCC)nc(N)nc32)O[C@](F)(CO[P@@](=O)(N[C@@H](C)C(=O)OC2CCCCC2)Oc2ccccc2)[C@H]1O` [Compound 35] was run?
**A.** < 1 µM

**Q.** `CCOc1nc(N)nc2c1ncn2[C@@H]1O[C@]2(F)CO[P@@](=O)(OC(C)C)O[C@H]2[C@@]1(C)O` [Compound 37] was tested. Which EC50 [1, 5] did it give?
**A.** < 1 µM

**Q.** `C#C[C@]1(F)[C@H](n2cnc3c(OCC)nc(N)nc32)O[C@](F)(COP(=O)(N[C@@H](C)C(=O)OC2CCCCC2)Oc2ccccc2)[C@H]1O` (some centres unmarked) [Compound 40] was tested. Which EC50 ([1]; Hepatitis C virus, Huh-7, 72 h) did it give?
**A.** 1 to 10 µM

**Q.** How did the EC50 ([1]; read-out: EC50) turn out when `CCOc1nc(N)nc2c1ncn2[C@@H]1O[C@]2(F)CO[P@](=O)(OC(C)C)O[C@H]2[C@@]1(C)F` [Compound 42] was run?
**A.** < 1 µM

**Q.** With `CCOc1nc(N)nc2c1ncn2[C@@H]1O[C@]2(F)CO[P@@](=O)(OC(C)C)O[C@H]2[C@@]1(C)F` [Compound 43] as the molecule, how does the EC50 [1, 5] read?
**A.** < 1 µM

**Q.** For `C#C[C@]1(F)[C@H](n2cnc3c(=O)[nH]c(N)nc32)O[C@](F)(COP(=O)(O)OP(=O)(O)OP(=O)(O)O)[C@H]1O` [Compound 44], which IC50 (NS5B570-Con1 (Delta-21); 50 nM NS5B570-Con1, cIRES RNA template) is on record?
**A.** < 1 µM

**Q.** `C[C@]1(Cl)[C@H](n2ccc(=O)[nH]c2=O)O[C@](F)(COP(=O)(O)OP(=O)(O)OP(=O)(O)O)[C@H]1O` [Compound 46] was tested. Which IC50 (NS5B570-Con1 (Delta-21); 50 nM NS5B570-Con1, cIRES RNA template, read-out: IC50) did it give?
**A.** < 1 µM

**Q.** For `CC(C)OC(=O)OCOP(=O)(OCOC(=O)OC(C)C)OC[C@@]1(F)O[C@@H](n2cnc3c(=O)[nH]c(N)nc32)[C@](C)(O)[C@@H]1O` [Compound 49], which EC50 [1, 5] is on record?
**A.** < 1 µM

**Q.** For `C#C[C@]1(O)[C@H](n2ccc(=O)[nH]c2=O)O[C@](F)(COP(=O)(OCOC(=O)OC(C)C)OCOC(=O)OC(C)C)[C@H]1O` [Compound 51], which EC50 [1, 5] is on record?
**A.** 1 to 10 µM

**Q.** `CCOc1nc(N)nc2c1ncn2[C@@H]1O[C@](F)(COP(=O)(OCOC(=O)OC(C)C)OCOC(=O)OC(C)C)[C@@H](O)[C@@]1(C)O` [Compound 52] was tested. Which EC50 [1, 5] did it give?
**A.** < 1 µM

**Q.** Which EC50 [1, 5] does the source give for `CCOc1nc(N)nc2c1ncn2[C@@H]1O[C@](F)(COP(=O)(OCOC(=O)OC(C)C)OCOC(=O)OC(C)C)[C@@H](O)[C@@]1(C)F` [Compound 53] here?
**A.** < 1 µM

**Q.** With `CC(C)(C)C(=O)OCOP(=O)(OCOC(=O)C(C)(C)C)OC[C@@]1(F)O[C@@H](n2ccc(=O)[nH]c2=O)[C@](C)(O)[C@@H]1O` [Compound 55] as the molecule, how does the EC50 [1, 5] read?
**A.** < 1 µM

**Q.** For `CC(C)(C)C(=O)SCCOP(=O)(OCCSC(=O)C(C)(C)C)OC[C@@]1(F)O[C@@H](n2ccc(=O)[nH]c2=O)[C@](C)(O)[C@@H]1O` [Compound 58], which EC50 ([1]; Hepatitis C virus, Huh-7, 72 h) is on record?
**A.** < 1 µM

**Q.** Which EC50 ([1]; Hepatitis C virus, Huh-7, 72 h) does the source give for `CC(C)(C)C(=O)SCCOCCOP(=O)(OCCOCCSC(=O)C(C)(C)C)OC[C@@]1(F)O[C@@H](n2ccc(=O)[nH]c2=O)[C@](C)(O)[C@@H]1O` [Compound 59] here?
**A.** 10 to 100 µM

**Q.** `C#C[C@]1(F)[C@H](n2cnc3c(=O)[nH]c(N)nc32)O[C@](F)(COP(=O)(O)OP(=O)(O)OP(=O)(O)O)[C@H]1O` [Compound 69] was tested. Which IC50 (NS5B570-Con1 (Delta-21); [4]) did it give?
**A.** < 1 µM

**Q.** For `O=c1ccn([C@@H]2O[C@](F)(COP(=O)(O)OP(=O)(O)OP(=O)(O)O)[C@@H](O)[C@]2(O)CF)c(=O)[nH]1` [Compound 76], which IC50 (NS5B570-Con1 (Delta-21); [4]) is on record?
**A.** < 1 µM

**Q.** Which EC50 ([1]; Hepatitis C virus, Huh-7, 72 h) does the source give for `C=C[C@]1(O)[C@H](n2ccc(=O)[nH]c2=O)O[C@](F)(CO[P@@](=O)(N[C@@H](C)C(=O)OC(C)C)Oc2ccccc2)[C@H]1O` [Compound 77] here?
**A.** 1 to 10 µM

**Q.** With `CCOc1nc(N)nc2c1ncn2[C@@H]1O[C@](F)(COP(=O)(N[C@@H](C)C(=O)OC(C)C)Oc2cccc3ccccc23)[C@@H](O)[C@@]1(C)F` (some centres unmarked) [Compound 83] as the molecule, how does the EC50 ([1]; Hepatitis C virus, Huh-7, 72 h) read?
**A.** < 1 µM

**Q.** `CCOc1nc(N)nc2c1ncn2[C@@H]1O[C@](F)(COP(=O)(N[C@@H](C)C(=O)OCC(C)C)Oc2cccc3ccccc23)[C@@H](O)[C@@]1(C)F` (some centres unmarked) [Compound 84] was tested. Which EC50 ([1]; Hepatitis C virus, Huh-7, 72 h) did it give?
**A.** < 1 µM

**Q.** How did the EC50 ([1]; Hepatitis C virus, Huh-7, 72 h) turn out when `CCOc1nc(N)nc2c1ncn2[C@@H]1O[C@](F)(COP(=O)(N[C@@H](C)C(=O)OC(C)C)Oc2ccccc2)[C@@H](O)[C@@]1(C)F` (some centres unmarked) [Compound 85] was run?
**A.** < 1 µM

**Q.** With `CCOc1nc(N)nc2c1ncn2[C@@H]1O[C@](F)(COP(=O)(N[C@@H](C)C(=O)OCC(C)C)Oc2ccccc2)[C@@H](O)[C@@]1(C)F` (some centres unmarked) [Compound 86] as the molecule, how does the EC50 ([1]; Hepatitis C virus, Huh-7, 72 h) read?
**A.** < 1 µM

**Q.** Which “inhibition of mitochondrial protein synthesis (COX I/SDH A ratio)” value (shortened to “inhibition … (COX I/SDH A ratio)”) [3] does the source give for `COc1nc(N)nc2c1ncn2[C@@H]1O[C@H](COP(=O)(N[C@@H](C)C(=O)OCC(C)(C)C)Oc2cccc3ccccc23)[C@@H](O)[C@@]1(C)O` (some centres unmarked) [INX-08189/BMS-986094] here?
**A.** strongly inhibit mitochondrial protein synthesis

**Q.** How did the “inhibition … (COX I/SDH A ratio)” value [3] turn out when `Cc1cn([C@H]2C=C[C@@H](CO)O2)c(=O)[nH]c1=O` [d4T] was run?
**A.** not to inhibit mitochondrial protein synthesis at concentrations up to 100 μM

**Q.** With `Nc1ccn([C@H]2CC[C@@H](CO)O2)c(=O)n1` [ddC] as the molecule, how does the “inhibition … (COX I/SDH A ratio)” value [3] read?
**A.** strongly inhibit mitochondrial protein synthesis

Reference: patent US10144755B2, “Substituted nucleosides, nucleotides and analogs thereof” (ALIOS BIOPHARMA, INC., priority 2012, dated 2018)
